According to paper PMC9312113, “Bioactive Components from Ampelopsis japonica with Antioxidant, Anti-α-Glucosidase, and Antiacetylcholinesterase Activities” (Antioxidants, 2022):
Read-outs that look alike come from different tables or passages of the source.

Assays:
[1] = molecular target: acetylcholinesterase (AChE) (Electrophorus electricus, UniProt O42275); assay: biochemical
[2] = DPPH radical scavenging activity; details: n = 3
Method: This assay was determined using the procedure previously reported.

[3] = Ferric reducing antioxidant power (FRAP) assay
Method: The FRAP assay was measured using the procedure previously described.

[4] = ABTS radical scavenging assay; details: n = 3
Method: This assay was assessed using the procedure previously described.

[5] = Superoxide radical scavenging assay; details: isolated compounds (Table 5); n = 3
Method: This assay was determined by the method previously described.

[6] = isolated components (Table 6), read-out: IC50 AChE (converted)
[7] = isolated compounds (Table 5), Trolox equivalents
[8] = solvent extracts (Table 2), concentration causing 50% free radical scavenging

Chain of acetylcholinesterase (AChE) (O42275 24-633): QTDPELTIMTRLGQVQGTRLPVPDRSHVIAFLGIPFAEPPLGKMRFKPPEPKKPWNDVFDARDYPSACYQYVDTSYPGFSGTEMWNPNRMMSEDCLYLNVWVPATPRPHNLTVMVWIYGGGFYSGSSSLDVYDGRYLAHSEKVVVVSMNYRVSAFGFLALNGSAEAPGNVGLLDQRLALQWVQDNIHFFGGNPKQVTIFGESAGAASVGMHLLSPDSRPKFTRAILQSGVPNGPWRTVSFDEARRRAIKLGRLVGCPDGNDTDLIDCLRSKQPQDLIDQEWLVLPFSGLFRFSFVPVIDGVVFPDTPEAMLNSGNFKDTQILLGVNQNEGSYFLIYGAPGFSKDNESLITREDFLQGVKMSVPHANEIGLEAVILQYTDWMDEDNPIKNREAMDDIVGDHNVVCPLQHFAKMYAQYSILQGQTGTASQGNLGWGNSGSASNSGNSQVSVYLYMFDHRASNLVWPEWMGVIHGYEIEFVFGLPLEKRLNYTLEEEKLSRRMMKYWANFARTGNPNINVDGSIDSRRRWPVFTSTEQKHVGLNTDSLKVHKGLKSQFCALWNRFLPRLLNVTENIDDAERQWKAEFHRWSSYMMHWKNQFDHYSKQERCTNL

`Oc1ccc(/C=C/c2cc(O)cc(O)c2)cc1` [Compound 6, resveratrol] showed an IC50 [1] of 354 µM.

With `C[C@@H]1CC[C@]2(C(=O)O)CC[C@]3(C)C(=CC[C@@H]4[C@@]5(C)C[C@@H](O)[C@@H](O)C(C)(C)[C@@H]5CC[C@]43C)[C@@H]2[C@]1(C)O` [Compound 5, euscaphic acid] the “SC50 DPPH” value ([2]; isolated compounds (Table 5)) was greater than 400 µg/mL, the IC50 [1, 6] was 23.8 µM and the “FRAP, TE” value [3, 7] was 8.67 ± 3.93 mM/g. The “SC50 ABTS” value ([4]; isolated compounds (Table 5)) was greater than 400 µg/mL and the “SC50 Superoxide” value [5] was greater than 400 µg/mL.

`O=C(/C=C/c1ccc(O)c(O)c1)O[C@@H]1C[C@](O)(C(=O)O)C[C@@H](O)[C@H]1O` [Chlorogenic acid, chlorogenic acid, reference compound] gave an IC50 [1, 6] of 182 µM and an IC50 ([1]; solvent extracts (Table 3), read-out: IC50 AChE (converted)) of 188 µM.

In the case of `O=c1c(O)c(-c2ccc(O)cc2)oc2cc(O)cc(O)c12` [Compound 3, kaempferol], the “SC50 DPPH” value ([2]; isolated compounds (Table 5)) is reported as 12.48 ± 3.01 µg/mL, the “FRAP, TE” value [3, 7] is reported as 7912.47 ± 220.08 mM/g and the “SC50 ABTS” value ([4]; isolated compounds (Table 5)) is reported as 5.24 ± 0.45 µg/mL.

With `O=C(O)c1cc(O)c(O)c(O)c1` [Compound 2, gallic acid] the “SC50 DPPH” value ([2]; isolated compounds (Table 5)) was 2.60 ± 0.67 µg/mL, the IC50 [1] was 244 µM and the “FRAP, TE” value [3, 7] was 28,512.82 ± 43.27 mM/g. The “SC50 ABTS” value ([4]; isolated compounds (Table 5)) was 1.45 ± 0.14 µg/mL and the “SC50 Superoxide” value [5] was 47.40 ± 3.01 µg/mL.

For `Cc1cc(C(C)(C)C)c(O)c(C(C)(C)C)c1` [BHT, butylated hydroxytoluene, reference compound], the “SC50 DPPH” value ([2]; isolated compounds (Table 5)) was 36.99 ± 4.54 µg/mL, the “SC50 DPPH” value [2, 8] was 33.04 ± 2.12 µg/mL and the “FRAP, TE” value [3, 7] was 3997.23 ± 144.35 mM/g. For the same compound, the “FRAP, TE” value ([3]; solvent extracts (Table 2), millimolar of Trolox equivalents per gram of extract) was 4257.97 ± 145.90 mM/g, the “SC50 ABTS” value ([4]; isolated compounds (Table 5)) was 17.36 ± 3.14 µg/mL and the “SC50 ABTS” value [4, 8] was 14.09 ± 0.24 µg/mL.

For `Oc1cc(O)c2c(c1)O[C@H](c1ccc(O)c(O)c1)[C@@H](O)C2` [Compound 1, catechin], the “SC50 DPPH” value ([2]; isolated compounds (Table 5)) was 10.08 ± 3.09 µg/mL, the IC50 [1, 6] was 90.8 µM and the “FRAP, TE” value [3, 7] was 8729.33 ± 424.55 mM/g. For the same compound, the “SC50 ABTS” value ([4]; isolated compounds (Table 5)) was 2.23 ± 0.22 µg/mL and the “SC50 Superoxide” value [5] was 64.43 ± 7.73 µg/mL.

For `O=c1c(O)c(-c2ccc(O)c(O)c2)oc2cc(O)cc(O)c12` [Compound 4, quercetin], the “SC50 DPPH” value ([2]; isolated compounds (Table 5)) was 3.36 ± 0.58 µg/mL, the “FRAP, TE” value [3, 7] was 16,038.26 ± 86.89 mM/g and the “SC50 ABTS” value ([4]; isolated compounds (Table 5)) was 3.15 ± 0.49 µg/mL. The “SC50 Superoxide” value [5] was 31.89 ± 2.03 µg/mL.

For `Oc1cc(O)c2c(c1)O[C@H](c1ccc(O)c(O)c1)[C@H](O)C2` [Compound 7, epicatechin], the “SC50 DPPH” value ([2]; isolated compounds (Table 5)) was 2.78 ± 0.25 µg/mL, the IC50 [1, 6] was 184 µM and the “FRAP, TE” value [3, 7] was 13,122.77 ± 182.42 mM/g. For the same compound, the “SC50 ABTS” value ([4]; isolated compounds (Table 5)) was 3.78 ± 0.03 µg/mL and the “SC50 Superoxide” value [5] was 41.76 ± 4.20 µg/mL.
